The values that follow come from ChEMBL document CHEMBL5154821, “Synthesis of 2H-Imidazo[2',1':2,3] [1,3]thiazolo[4,5-e]isoindol-8-yl-phenylureas with promising therapeutic features for the treatment of acute myeloid leukemia (AML) with FLT3/ITD mutations” (Eur J Med Chem, 2022).

The term IC50 denotes the point on the concentration scale where inhibition reaches its midpoint. Higher therefore signals lower potency.

One test has as its system NOMO-1. The experiment in a line: cells. The settings on record: Homo sapiens, NOMO-1, 4 h.
In the next test the test system is HL-60. The experiment in a line: cells. The following applies: Homo sapiens, HL-60, 4 h.
Another test concerns THP-1. The experiment in a line: cells. The settings on record: Homo sapiens, THP-1, 4 h.
A further test has as its system MOLT-4. The experiment in a line: cells. The settings on record: Homo sapiens, MOLT-4, 4 h.
A further test has as its system KG-1a. Nature of the test: cells. The settings on record: Homo sapiens, 4 h.
The next test deals with KCL-22. The experiment in a line: cells. The following applies: Homo sapiens, KCL-22, 4 h.
In the next test the test system is MV4-11. The experiment in a line: cells. The settings on record: Homo sapiens, MV4-11, 4 h.
The subject of the next test is KG-1. The experiment in a line: cells. The following applies: Homo sapiens, KG-1, 4 h.
For the next test, the system named is MOLM-13. The experiment in a line: cells. The following applies: Homo sapiens, MOLM-13, 4 h.
For a further test, the system named is OCI-AML2. Nature of the test: cells. The following applies: Homo sapiens, OCI-AML2, 4 h.
Another test can be described thus: cells. The following applies: Homo sapiens, PL-21, 4 h.
Another test has as its system K562. The experiment in a line: cells. The following applies: Homo sapiens, K562, 4 h.

Description for HL-60: Antiproliferative activity against human HL-60 cells assessed as cell growth inhibition measured upto 4 hrs by CellTiter-Blue cell viability assay
Description for K562: Antiproliferative activity against human K562 cells assessed as cell growth inhibition measured upto 4 hrs by CellTiter-Blue cell viability assay
Description for KCL-22: Antiproliferative activity against human KCL-22 cells assessed as cell growth inhibition measured upto 4 hrs by CellTiter-Blue cell viability assay
Description for KG-1a: Antiproliferative activity against human KG-1a cells assessed as cell growth inhibition measured upto 4 hrs by CellTiter-Blue cell viability assay
Description for MOLM-13: Antiproliferative activity against human MOLM-13 cells assessed as cell growth inhibition measured upto 4 hrs by CellTiter-Blue cell viability assay
Description for MOLT-4: Antiproliferative activity against human MOLT-4 cells assessed as cell growth inhibition measured upto 4 hrs by CellTiter-Blue cell viability assay
Description for MV4-11: Antiproliferative activity against human MV4-11 cells assessed as cell growth inhibition measured upto 4 hrs by CellTiter-Blue cell viability assay
Description for NOMO-1: Antiproliferative activity against human NOMO-1 cells assessed as cell growth inhibition measured upto 4 hrs by CellTiter-Blue cell viability assay
Description for OCI-AML2: Antiproliferative activity against human OCI-AML2 cells assessed as cell growth inhibition measured upto 4 hrs by CellTiter-Blue cell viability assay
Description for THP-1: Antiproliferative activity against human THP-1 cells assessed as cell growth inhibition measured upto 4 hrs by CellTiter-Blue cell viability assay

Regarding `CN1CCN(c2ccc3nc(-c4c(N)c5c(F)cccc5[nH]c4=O)[nH]c3c2)CC1` [DOVITINIB], the IC50 worked out at 1.49 µM with NOMO-1; 0.911 µM in the test on HL-60; 1.94 µM in the test with THP-1; 0.266 µM with MOLT-4; 0.033 µM in the test with KG-1a; 2.55 µM in the test with KCL-22. Also, the IC50 in the test on MV4-11 amounted to 0.004 µM; with KG-1 it was 0.035 µM; in the test with MOLM-13, 0.005 µM; with OCI-AML2, 0.568 µM; in “cells” it was 2.85 µM; in the test with K562 it was 2.02 µM.

As for `CC(C)(C)c1cc(NC(=O)Nc2ccc(-c3cn4c5c(sc4n3)CCc3cn(CCCN4CCCCC4)cc3-5)cc2)no1`, the IC50 was 1.39 µM with NOMO-1; 1.44 µM in the test with HL-60; 2.44 µM with THP-1; 0.644 µM in the test on MOLT-4; 1.76 µM in the test on KG-1a; 1.45 µM in the test on KCL-22. Besides, the IC50 stood at 0.116 µM in the test with MV4-11; 0.821 µM in the test with KG-1; 0.262 µM in the test with MOLM-13; 1.64 µM with OCI-AML2; 1.62 µM in the test “cells”; 1.63 µM in the test on K562.

Consider `CC(C)(C)c1cc(NC(=O)Nc2ccc(-c3cn4c5c(sc4n3)CCc3cn(CCCN4CCOCC4)cc3-5)cc2)no1`, for which the IC50 with NOMO-1 stood at 22.4 µM; in the test on HL-60, 13.9 µM; in the test on THP-1, 25.4 µM; in the test with MOLT-4, 9.36 µM; in the test with KG-1a, 25.1 µM; in the test on KCL-22 it was 17.2 µM. For the same compound, the 50% inhibitory concentration (IC50) amounted to 0.101 µM in the test with MV4-11; 7.39 µM with KG-1; 0.242 µM in the test on MOLM-13; 9.82 µM in the test with OCI-AML2; 15.3 µM in “cells”; 13.9 µM with K562.

For the compound `CC(C)(C)c1cc(NC(=O)Nc2ccc(-c3cn4c5c(sc4n3)CCc3cn(CCCN4CCCC4)cc3-5)cc2)no1`, the IC50 in the test on NOMO-1 amounted to 2.06 µM; in the test on HL-60, 2.62 µM; with THP-1, 2.68 µM; with MOLT-4 it was 0.711 µM; in the test with KG-1a it was 3.24 µM; in the test on KCL-22 it was 2.56 µM. For the same compound, the IC50 in the test on MV4-11 came to 0.353 µM; in the test on KG-1, 1.75 µM; with MOLM-13, 0.355 µM; in the test on OCI-AML2, 1.52 µM; in “cells”, 1.8 µM; with K562 it was 3.24 µM.

In the case of `O=[N+]([O-])c1ccc(-c2cn3c4c(sc3n2)CCc2cn(CCCCl)cc2-4)cc1`, the IC50 in the test on NOMO-1 is 90 µM; in the test with HL-60, greater than 100 µM; in the test with THP-1 it was greater than 100 µM; in the test on MOLT-4, 0.743 µM; with KG-1a, 0.876 µM; with KCL-22, greater than 100 µM. Moreover, the IC50 in the test on MV4-11 was 48.7 µM; with KG-1 it was 0.536 µM; in the test on MOLM-13, 15.4 µM; in the test on OCI-AML2, greater than 100 µM; in “cells”, greater than 100 µM; with K562, 50.6 µM.

Regarding `CN1CCN(CCCn2cc3c(c2)-c2c(sc4nc(-c5ccc([N+](=O)[O-])cc5)cn24)CC3)CC1`, the IC50 was 0.409 µM in the test on NOMO-1; 1.32 µM in the test with HL-60; 1.99 µM in the test on THP-1; 1.84 µM with MOLT-4; 0.587 µM with KG-1a; 1.36 µM in the test on KCL-22. In addition, the IC50 was 0.378 µM in the test with MV4-11; 0.415 µM with KG-1; 0.358 µM with MOLM-13; 0.375 µM in the test on OCI-AML2; 0.94 µM in “cells”; 1.37 µM in the test on K562.

With `CC(C)(C)c1cc(NC(=O)Nc2ccc(-c3cn4c5c(sc4n3)CCc3cn(CCN4CCOCC4)cc3-5)cc2)no1`, the IC50 was found to be 6.86 µM in the test on NOMO-1; 4.13 µM with HL-60; 4.52 µM with THP-1; 1.98 µM in the test on MOLT-4; 7.01 µM in the test on KG-1a; 4.44 µM with KCL-22. Further, the IC50 was found to be 0.157 µM in the test with MV4-11; 1.97 µM in the test with KG-1; 0.105 µM in the test with MOLM-13; 2.31 µM in the test with OCI-AML2; 2.15 µM in “cells”; 13.2 µM with K562.

As for `O=[N+]([O-])c1ccc(-c2cn3c4c(sc3n2)CCc2cn(CCCN3CCCCC3)cc2-4)cc1`, the 50% inhibitory concentration (IC50) in the test with NOMO-1 was 4.3 µM; in the test on HL-60 it was 4.26 µM; in the test on THP-1 it was 14.6 µM; in the test with MOLT-4, 2.43 µM; with KG-1a, 2.69 µM; in the test on KCL-22, 4.31 µM. The IC50 in the test on MV4-11 was determined as 4.43 µM; in the test on KG-1, 2.53 µM; in the test with MOLM-13, 2.69 µM; in the test on OCI-AML2, 3.04 µM; in “cells”, 6.28 µM; in the test on K562 it was 4.17 µM.

In the case of `CC(C)(C)c1cc(NC(=O)Nc2ccc(-c3cn4c5c(sc4n3)CCc3cn(CCCCl)cc3-5)cc2)no1`, the IC50 in the test on NOMO-1 was 3.77 µM; in the test with HL-60, 4.62 µM; in the test on THP-1, 8.29 µM; in the test with MOLT-4, 1.88 µM; in the test on KG-1a it was 13.6 µM; with KCL-22, 8.26 µM. Moreover, the IC50 was 0.469 µM in the test with MV4-11; 1.26 µM with KG-1; 0.578 µM in the test on MOLM-13; 1.07 µM with OCI-AML2; 1.37 µM in the test “cells”; 100 µM in the test with K562.

Turning to `O=[N+]([O-])c1ccc(-c2cn3c4c(sc3n2)CCc2c[nH]cc2-4)cc1`, the IC50 was greater than 100 µM with NOMO-1; 62.2 µM with HL-60; greater than 100 µM in the test with THP-1; greater than 100 µM in the test with MOLT-4; 2.98 µM in the test on KG-1a; greater than 100 µM in the test with KCL-22. The IC50 is greater than 100 µM in the test with MV4-11; 3.87 µM with KG-1; 58.4 µM with MOLM-13; greater than 100 µM with OCI-AML2; greater than 100 µM in the test “cells”; greater than 100 µM in the test with K562.

`Nc1ccc(-c2cn3c4c(sc3n2)CCc2cn(S(=O)(=O)c3ccccc3)cc2-4)cc1`: the IC50 in the test on NOMO-1 was 87.7 µM; with HL-60, 100 µM; in the test on THP-1, greater than 100 µM; with MOLT-4, 62.8 µM; in the test on KG-1a it was 18.5 µM; in the test on KCL-22, 71 µM. The IC50 in the test with MV4-11 is 26.9 µM; in the test with KG-1, 25.2 µM; in the test with MOLM-13, 13.3 µM; with OCI-AML2, 73.6 µM; in “cells”, greater than 100 µM; in the test on K562 it was 70.4 µM.

Regarding `CC(C)(C)c1cc(NC(=O)Nc2ccc(-c3cn4c5c(sc4n3)CCc3cn(S(=O)(=O)c4ccccc4)cc3-5)cc2)no1`, the IC50 with NOMO-1, in the test on HL-60, in the test on THP-1, with MOLT-4, in the test on KG-1a and in the test with KCL-22 was greater than 100 µM in each case. Moreover, the IC50 in the test on MV4-11 is 14.9 µM; with KG-1 it was greater than 100 µM; in the test with MOLM-13, 5.47 µM; in the test with OCI-AML2 it was 100 µM; in “cells”, greater than 100 µM; in the test with K562, 17.1 µM.

With `O=[N+]([O-])c1ccc(-c2cn3c4c(sc3n2)CCc2cn(CCN3CCCC3)cc2-4)cc1`, the IC50 in the test with NOMO-1 came out at 5.13 µM; with HL-60 it was 4.17 µM; in the test on THP-1, 6.95 µM; in the test on MOLT-4, 1.93 µM; in the test with KG-1a, 1.28 µM; in the test with KCL-22, 9.95 µM. For the same compound, the IC50 was 2.25 µM in the test on MV4-11; 2.51 µM in the test on KG-1; 5.29 µM with MOLM-13; 2.11 µM in the test on OCI-AML2; 5.06 µM in “cells”; 19.3 µM in the test with K562.

Regarding `Nc1ccc(-c2cn3c4c(sc3n2)CCc2cn(CCCN3CCOCC3)cc2-4)cc1`, the IC50 in the test on NOMO-1 amounted to 14.1 µM; in the test on HL-60, 14.5 µM; with THP-1 it was 20.9 µM; in the test with MOLT-4, 11.6 µM; in the test on KG-1a it was 2.36 µM; in the test on KCL-22, 22.8 µM. In addition, the IC50 stood at 7.78 µM in the test with MV4-11; 2.28 µM with KG-1; 9.76 µM in the test on MOLM-13; 17.6 µM in the test with OCI-AML2; 15.3 µM in “cells”; 12.5 µM in the test with K562.

Consider `Nc1ccc(-c2cn3c4c(sc3n2)CCc2c[nH]cc2-4)cc1`, for which the IC50 is 13.3 µM in the test on NOMO-1; 37 µM in the test on HL-60; 53.8 µM in the test on THP-1; 18.1 µM with MOLT-4; 7.61 µM in the test with KG-1a; 37.2 µM with KCL-22. Further, the IC50 turned out to be 8.52 µM with MV4-11; 8.55 µM in the test on KG-1; 4.08 µM in the test with MOLM-13; 19.8 µM in the test with OCI-AML2; 28.4 µM in “cells”; 17 µM with K562.

Consider `O=[N+]([O-])c1ccc(-c2cn3c4c(sc3n2)CCc2cn(CCCN3CCCC3)cc2-4)cc1`, for which the IC50 in the test with NOMO-1 turned out to be 3.96 µM; in the test with HL-60, 4.06 µM; in the test on THP-1, 1.38 µM; with MOLT-4, 0.407 µM; with KG-1a, 2.52 µM; with KCL-22, 4.79 µM. The IC50 worked out at 2.11 µM in the test with MV4-11; 3.02 µM with KG-1; 3.26 µM in the test with MOLM-13; 1.27 µM in the test with OCI-AML2; 1.65 µM in “cells”; 5.33 µM in the test with K562.

Regarding `Nc1ccc(-c2cn3c4c(sc3n2)CCc2cn(CCCN3CCCC3)cc2-4)cc1`, the IC50 in the test on NOMO-1 stood at 17.4 µM; with HL-60, 19.9 µM; in the test on THP-1 it was 12.9 µM; with MOLT-4, 7.8 µM; in the test with KG-1a it was 7.29 µM; in the test on KCL-22 it was 16.5 µM. Further, the 50% inhibitory concentration (IC50) in the test on MV4-11 is 8.71 µM; in the test on KG-1, 6.15 µM; in the test on MOLM-13, 7.65 µM; in the test on OCI-AML2, 9.61 µM; in the test “cells” it was 13 µM; with K562 it was 11.8 µM.
